# Data taken from patent US8653263B2 (Janssen Pharmaceutica, priority 2009, dated 2014).
# Biological target: human orexin-2 receptor (Homo sapiens (Human), UniProt O43614)
# Assay: Human orexin 2 receptor radioligand binding ([3H]-EMPA competition)
# Conditions: HEK293 cells stably expressing human orexin-2 receptor; [3H]-EMPA 5 nM final; apparent Ki=IC50/(1+C/Kd), Kd=2 nM; read-out: OR 2 Ki
# Sequence of human orexin-2 receptor (O43614 whole entry): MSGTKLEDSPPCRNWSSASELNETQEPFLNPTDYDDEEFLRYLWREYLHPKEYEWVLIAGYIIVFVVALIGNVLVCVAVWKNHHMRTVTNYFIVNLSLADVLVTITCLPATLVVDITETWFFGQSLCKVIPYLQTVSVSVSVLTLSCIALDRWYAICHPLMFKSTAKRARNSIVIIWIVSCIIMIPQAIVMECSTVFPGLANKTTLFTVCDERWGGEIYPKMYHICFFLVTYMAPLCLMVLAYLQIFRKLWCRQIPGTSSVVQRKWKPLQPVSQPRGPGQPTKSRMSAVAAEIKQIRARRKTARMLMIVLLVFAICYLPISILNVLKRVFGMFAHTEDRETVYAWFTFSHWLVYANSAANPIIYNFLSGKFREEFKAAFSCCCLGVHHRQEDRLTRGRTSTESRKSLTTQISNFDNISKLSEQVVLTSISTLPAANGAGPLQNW
row,SMILES,Ki
1,"Cc1cc(C)nc(N2CC3CN(C(=O)c4c(F)cccc4-c4nc(C)no4)CC3C2)n1 (stereo not shown) [Example 315, 2-(4,6-Dimethylpyrimidin-2-yl)-5-{[2-fluoro-6-(3-methyl-1,2,4-oxadiazol-5-yl)phenyl]carbonyl}octahydropyrrolo[3,4-c]pyrrole]",38 nM
2,"Cc1noc(-c2ccccc2C(=O)N2CC3CN(c4nc(C)c5c(n4)CCC5)CC3C2)n1 (stereo not shown) [Example 319, 4-Methyl-2-[5-{[2-(3-methyl-1,2,4-oxadiazol-5-yl)phenyl]carbonyl}hexahydropyrrolo[3,4-c]pyrrol-2(1H)-yl]-6,7-dihydro-5H-cyclopenta[d]pyrimidine]",18 nM
3,"Cc1nc(N2CC3CN(C(=O)c4ncccc4-n4nccn4)CC3C2)nc(C)c1C (stereo not shown) [Example 323, 2-{[3-(2H-1,2,3-Triazol-2-yl)pyridin-2-yl]carbonyl}-5-(4,5,6-trimethylpyrimidin-2-yl)octahydropyrrolo[3,4-c]pyrrole]",25 nM
4,"Cc1nc(N2CC3CN(C(=O)c4ncccc4-n4nccn4)CC3C2)nc(C)c1F (stereo not shown) [Example 325, 2-(5-Fluoro-4,6-dimethylpyrimidin-2-yl)-5-{[3-(2H-1,2,3-triazol-2-yl)pyridin-2-yl]carbonyl}octahydropyrrolo[3,4-c]pyrrole]",16 nM
5,"Cc1cc(C)nc(N2CC3CN(C(=O)c4cccc5c4-c4ccccc4C5)CC3C2)n1 (stereo not shown) [Example 326, 2-(4,6-Dimethylpyrimidin-2-yl)-5-(9H-fluoren-4-ylcarbonyl)octahydropyrrolo[3,4-c]pyrrole]",8 nM
6,"Cc1cc(C)nc(N2CC3CN(C(=O)c4c(-n5nccn5)ccc5c4OCO5)CC3C2)n1 (stereo not shown) [Example 327, [5-(4,6-Dimethyl-pyrimidin-2-yl)-hexahydro-pyrrolo[3,4-c]pyrrol-2-yl]-(5-[1,2,3]triazol-2-yl-benzo[1,3]dioxol-4-yl)methanone]",103 nM

# The next lines start with the values.
row,Ki,SMILES
1,64 nM,"Cc1noc(-c2ccccc2C(=O)N2CC3CN(c4ncc(F)c(C)n4)CC3C2)n1 (stereo not shown) [Example 310, 2-(5-Fluoro-4-methylpyrimidin-2-yl)-5-{[2-(3-methyl-1,2,4-oxadiazol-5-yl)phenyl]carbonyl}octahydropyrrolo[3,4-c]pyrrole]"
2,7 nM,"Cc1nc(N2CC3CN(C(=O)c4ccccc4-c4ncn(C)n4)CC3C2)nc(C)c1C (stereo not shown) [Example 311, 2-{[2-(1-Methyl-1H-1,2,4-triazol-3-yl)phenyl]carbonyl}-5-(4,5,6-trimethylpyrimidin-2-yl)octahydropyrrolo[3,4-c]pyrrole]"
3,79 nM,"Cc1nc(N2CC3CN(C(=O)c4ccccc4-c4ncn(C)n4)CC3C2)ncc1F (stereo not shown) [Example 312, 2-(5-Fluoro-4-methylpyrimidin-2-yl)-5-{[2-(1-methyl-1H-1,2,4-triazol-3-yl)phenyl]carbonyl}octahydropyrrolo[3,4-c]pyrrole]"
4,5 nM,"Cc1noc(-c2ccccc2C(=O)N2CC3CN(c4nc(C)c(Cl)c(C)n4)CC3C2)n1 (stereo not shown) [Example 318, 2-(5-Chloro-4,6-dimethylpyrimidin-2-yl)-5-{[2-(3-methyl-1,2,4-oxadiazol-5-yl)phenyl]carbonyl}octahydropyrrolo[3,4-c]pyrrole]"
5,4 nM,"Cc1nc(N2CC3CN(C(=O)c4ccccc4-c4ncn(C)n4)CC3C2)nc(C)c1Cl (stereo not shown) [Example 320, 2-(5-Chloro-4,6-dimethylpyrimidin-2-yl)-5-{[2-(1-methyl-1H-1,2,4-triazol-3-yl)phenyl]carbonyl}octahydropyrrolo[3,4-c]pyrrole]"
6,10 nM,"CCc1c(C)nc(N2CC3CN(C(=O)c4ccccc4-c4ncn(C)n4)CC3C2)nc1C (stereo not shown) [Example 322, 2-(5-Ethyl-4,6-dimethylpyrimidin-2-yl)-5-{[2-(1-methyl-1H-1,2,4-triazol-3-yl)phenyl]carbonyl}octahydropyrrolo[3,4-c]pyrrole]"

# Same assay, conditions: read-out: OR 2 Ki
row,Ki,SMILES
1,29 nM,"Cc1nc(N2CC3CN(C(=O)c4ccccc4-c4ncn(C)n4)CC3C2)ncc1Cl (stereo not shown) [Example 321, 2-(5-Chloro-4-methylpyrimidin-2-yl)-5-{[2-(1-methyl-1H-1,2,4-triazol-3-yl)phenyl]carbonyl}octahydropyrrolo[3,4-c]pyrrole]"
